test system: P. aeruginosa (CCUG #59347); experiment: Antibacterial activity against isolates (Omnilog, Biolog redox dye); type: cell-based, Pseudomonas aeruginosa; settings: Pseudomonas aeruginosa, CCUG59347; ca-MH broth, 24 h, 37 °C
Description: (§1) The antibacterial activities of eight compounds (1, 3, 4, 6, 8, 10, 16, and 17) were tested against 10 different isolates of Gram-negative bacteria from human and other sources, two E. coli (CCUG #67180 and CCUG #17620/ATCC #25922, control strain), two K. pneumoniae (CCUG #58547 and CCUG #225T), two P. aeruginosa (CCUG #17619 and CCUG #59347), two A. baumannii (CCUG #57035 and CCUG #57250), E. cloacae (CCUG #6323T), and E. hormaechei (CCUG #58962) in a 96-well plate format. […] Bacterial mass from the ten isolates grown overnight on horse blood or Mueller–Hinton agar plates was suspended in ca-MH and adjusted to a final inoculum cell density of ~5 × 10^5 CFU/mL. For all assays, Biolog redox dye A diluted 100× from the stock solution was used for measurements of all ten isolates (up to a total volume of 120 µL per well). All plates included one well per isolate with only inoculum and dye but no test compound (i.e., positive control) and one well per isolate with inoculum, dye and DMSO diluted 1667×, corresponding to the DMSO concentration in the wells with the highest concentration of test compound. All measurements were performed using the Omnilog microplate reader (Biolog, Hayward, CA, USA) where the 96-well plates were read at 15 min intervals for a total of 24 h at 37 °C.

Compound | EC50 [µM] | EC90 [µM]
COC(=O)c1cc(NC(=N)N)ccc1-c1ccc(-c2ccc(NC(=N)N)cc2C(=O)OC)o1 [Compound 8, 2,5-Bis(4-guanidino-2-(methylcarboxy)phenyl)furan] | > 200 | > 200
N=C(N)Nc1ccc(-c2ccc(-c3ccc(NC(=N)N)cc3)o2)cc1 [Compound 3] | 5.2 | 8.1

same assay, conditions: SI = ((EC50 MCF-7 + EC50 HepG2)/2)/EC50 bacterial strain

Compound | Selectivity index P. aeruginosa (CCUG #59347)
N=C(N)Nc1ccc(-c2ccc(-c3ccc(NC(=N)N)cc3)o2)cc1 [Compound 3] | 24.1

test system: K. pneumoniae (CCUG #58547); experiment: as above; type: cell-based, Klebsiella pneumoniae; settings: Klebsiella pneumoniae, CCUG58547; ca-MH broth, 24 h, 37 °C
Description: as §1

Compound | EC50 [µM] | EC90 [µM]
COC(=O)c1cc(NC(=N)N)ccc1-c1ccc(-c2ccc(NC(=N)N)cc2C(=O)OC)o1 [Compound 8, 2,5-Bis(4-guanidino-2-(methylcarboxy)phenyl)furan] | 10.3 | 13.3
N=C(N)Nc1ccc(-c2ccc(-c3ccc(NC(=N)N)cc3)o2)cc1 [Compound 3] | 5.6 | 8.3

same assay, conditions: SI = ((EC50 MCF-7 + EC50 HepG2)/2)/EC50 bacterial strain

Compound | Selectivity index K. pneumoniae (CCUG #58547)
COC(=O)c1cc(NC(=N)N)ccc1-c1ccc(-c2ccc(NC(=N)N)cc2C(=O)OC)o1 [Compound 8, 2,5-Bis(4-guanidino-2-(methylcarboxy)phenyl)furan] | 23.6
N=C(N)Nc1ccc(-c2ccc(-c3ccc(NC(=N)N)cc3)o2)cc1 [Compound 3] | 22.1

test system: P. aeruginosa (CCUG #17619); experiment: as above; type: cell-based, Pseudomonas aeruginosa; settings: Pseudomonas aeruginosa, CCUG17619; ca-MH broth, 24 h, 37 °C
Description: (§2) The antibacterial activities of eight compounds (1, 3, 4, 6, 8, 10, 16, and 17) were tested against 10 different isolates of Gram-negative bacteria from human and other sources, two E. coli (CCUG #67180 and CCUG #17620/ATCC #25922, control strain), two K. pneumoniae (CCUG #58547 and CCUG #225T), two P. aeruginosa (CCUG #17619 and CCUG #59347), two A. baumannii (CCUG #57035 and CCUG #57250), E. cloacae (CCUG #6323T), and E. hormaechei (CCUG #58962) in a 96-well plate format. The compounds to test were 3-fold diluted in six steps in cation-adjusted Mueller-Hinton (ca-MH) broth to final concentrations spanning from 30 to 0.12 µM, i.e., a 1667–416,667 times dilution from the 50 mM stocks. Bacterial mass from the ten isolates grown overnight on horse blood or Mueller–Hinton agar plates was suspended in ca-MH and adjusted to a final inoculum cell density of ~5 × 10^5 CFU/mL. For all assays, Biolog redox dye A diluted 100× from the stock solution was used for measurements of all ten isolates (up to a total volume of 120 µL per well). All plates included one well per isolate with only inoculum and dye but no test compound (i.e., positive control) and one well per isolate with inoculum, dye and DMSO diluted 1667×, corresponding to the DMSO concentration in the wells with the highest concentration of test compound. All measurements were performed using the Omnilog microplate reader (Biolog, Hayward, CA, USA) where the 96-well plates were read at 15 min intervals for a total of 24 h at 37 °C.

Compound | EC50 [µM] | EC90 [µM]
COC(=O)c1cc(NC(=N)N)ccc1-c1ccc(-c2ccc(NC(=N)N)cc2C(=O)OC)o1 [Compound 8, 2,5-Bis(4-guanidino-2-(methylcarboxy)phenyl)furan] | > 200 | > 200
N=C(N)Nc1ccc(-c2ccc(-c3ccc(NC(=N)N)cc3)o2)cc1 [Compound 3] | 9 | 11.1

same assay, conditions: SI = ((EC50 MCF-7 + EC50 HepG2)/2)/EC50 bacterial strain

Compound | Selectivity index P. aeruginosa (CCUG #17619)
N=C(N)Nc1ccc(-c2ccc(-c3ccc(NC(=N)N)cc3)o2)cc1 [Compound 3] | 13.8

test system: A. baumannii (CCUG #57250); experiment: as above; type: cell-based, Acinetobacter baumannii; settings: Acinetobacter baumannii, CCUG57250, 24 h, ca-MH broth, 24 h, 37 °C
Description: as §2

Compound | EC90 [µM]
COC(=O)c1cc(NC(=N)N)ccc1-c1ccc(-c2ccc(NC(=N)N)cc2C(=O)OC)o1 [Compound 8, 2,5-Bis(4-guanidino-2-(methylcarboxy)phenyl)furan] | 5.1
N=C(N)Nc1ccc(-c2ccc(-c3ccc(NC(=N)N)cc3)o2)cc1 [Compound 3] | 2.4

same assay, conditions: Acinetobacter baumannii, CCUG57250; ca-MH broth, 24 h, 37 °C

Compound | EC50 [µM]
COC(=O)c1cc(NC(=N)N)ccc1-c1ccc(-c2ccc(NC(=N)N)cc2C(=O)OC)o1 [Compound 8, 2,5-Bis(4-guanidino-2-(methylcarboxy)phenyl)furan] | 4.4
N=C(N)Nc1ccc(-c2ccc(-c3ccc(NC(=N)N)cc3)o2)cc1 [Compound 3] | 1.7

same assay, conditions: SI = ((EC50 MCF-7 + EC50 HepG2)/2)/EC50 bacterial strain

Compound | Selectivity index A. baumannii (CCUG #57250)
COC(=O)c1cc(NC(=N)N)ccc1-c1ccc(-c2ccc(NC(=N)N)cc2C(=O)OC)o1 [Compound 8, 2,5-Bis(4-guanidino-2-(methylcarboxy)phenyl)furan] | 55.3

same assay, conditions: ca-MH broth, 24 h, 37 °C

Compound | EC90 [µM]
N=C(N)Nc1ccc(-c2ccc(-c3ccc(NC(=N)N)cc3)o2)cc1 [Compound 3] | 2.3

test system: E. coli MG1655 (CGSC #6300); experiment: Antibacterial resazurin assay, laboratory strain; settings: Escherichia coli, MG1655, 18 h, read-out: Eco EC50

Compound | EC50 [µM]
COC(=O)c1cc(NC(=N)N)ccc1-c1ccc(-c2ccc(NC(=N)N)cc2C(=O)OC)o1 [Compound 8, 2,5-Bis(4-guanidino-2-(methylcarboxy)phenyl)furan] | 95.4
N=C(N)Nc1ccc(-c2ccc(-c3ccc(NC(=N)N)cc3)o2)cc1 [Compound 3] | 80.4

same assay, conditions: Escherichia coli, MG1655, 18 h, read-out: Eco EC90

Compound | EC90 [µM]
COC(=O)c1cc(NC(=N)N)ccc1-c1ccc(-c2ccc(NC(=N)N)cc2C(=O)OC)o1 [Compound 8, 2,5-Bis(4-guanidino-2-(methylcarboxy)phenyl)furan] | 129
N=C(N)Nc1ccc(-c2ccc(-c3ccc(NC(=N)N)cc3)o2)cc1 [Compound 3] | 174

same assay, conditions: mean of MCF-7 and HepG2 EC50 over bacterial EC50, laboratory strain

Compound | Selectivity index E. coli
COC(=O)c1cc(NC(=N)N)ccc1-c1ccc(-c2ccc(NC(=N)N)cc2C(=O)OC)o1 [Compound 8, 2,5-Bis(4-guanidino-2-(methylcarboxy)phenyl)furan] | 2.5
N=C(N)Nc1ccc(-c2ccc(-c3ccc(NC(=N)N)cc3)o2)cc1 [Compound 3] | 1.5

test system: E. cloacae (CCUG #6323T); experiment: Antibacterial activity against isolates (Omnilog, Biolog redox dye); type: cell-based, Enterobacter cloacae; settings: Enterobacter cloacae; ca-MH broth, 24 h, 37 °C
Description: as §2

Compound | EC50 [µM] | EC90 [µM]
COC(=O)c1cc(NC(=N)N)ccc1-c1ccc(-c2ccc(NC(=N)N)cc2C(=O)OC)o1 [Compound 8, 2,5-Bis(4-guanidino-2-(methylcarboxy)phenyl)furan] | 4.8 | 7.1
N=C(N)Nc1ccc(-c2ccc(-c3ccc(NC(=N)N)cc3)o2)cc1 [Compound 3] | 1.5 | 2.5

same assay, conditions: SI = ((EC50 MCF-7 + EC50 HepG2)/2)/EC50 bacterial strain

Compound | Selectivity index E. cloacae (CCUG #6323T)
COC(=O)c1cc(NC(=N)N)ccc1-c1ccc(-c2ccc(NC(=N)N)cc2C(=O)OC)o1 [Compound 8, 2,5-Bis(4-guanidino-2-(methylcarboxy)phenyl)furan] | 50.8
N=C(N)Nc1ccc(-c2ccc(-c3ccc(NC(=N)N)cc3)o2)cc1 [Compound 3] | 83.1

test system: not listed separately; experiment: Cytotoxicity assay (PrestoBlue) MCF-7; type: cell-based; settings: human, MCF-7 cells (breast cancer cell line), 24 h incubation
Description: (§3) The cytotoxicity levels of all compounds were evaluated against human Michigan Cancer Foundation-7 (MCF-7) and Hepatoma G2 cell line (HepG2) cell lines. MCF-7 is an extensively characterized breast cancer cell line isolated in 1970 [41], while HepG2 cells were derived from a hepatoma in 1975 [42]. Both cell lines grow robustly during in vitro culture and have been widely used for cytotoxicity testing. Cells of hepatic origin, such as HepG2, are of particular relevance for toxicity studies as many drugs accumulate in the liver during metabolic conversion. Cells were grown in Dulbecco’s Modified Eagle Medium supplemented with 10% fetal calf serum and kept in exponential growth, as previously reported. Before the assay, cells were reseeded into 96-well microtiter plates at a density allowing continued exponential growth and let to settle for 24 h. The compounds were added from a stock solution in DMSO, for a final concentration of 0.3% v/v of the solvent in the culture medium. After 24 h of incubation in presence of the compound, cell viability was assayed using PrestoBlue Cell Viability Reagent (resazurin-based solution, ThermoFisher, Waltham, MA, USA) according to the manufacturer’s instructions. […] Each assay contained a DMSO control at the equivalent starting concentration, positive control (uninhibited cell growth) and negative control (cell medium only). Survival was expressed as percentage of the solvent-only control. […] The Selectivity Index (SI) for each compound and bacterial strain was calculated as the ratio between the mean of the EC50 values for the two human cell lines and the EC50 for the bacterial strain in question ((EC50 MCF-7 + EC50 HepG2)/2)/EC50 bacterial strain).

Compound | EC50 at 24 h [µM]
COC(=O)c1cc(NC(=N)N)ccc1-c1ccc(-c2ccc(NC(=N)N)cc2C(=O)OC)o1 [Compound 8, 2,5-Bis(4-guanidino-2-(methylcarboxy)phenyl)furan] | 81.6
N=C(N)Nc1ccc(-c2ccc(-c3ccc(NC(=N)N)cc3)o2)cc1 [Compound 3] | 64.5

test system: not listed separately; experiment: Cytotoxicity assay (PrestoBlue) HepG2; type: cell-based; settings: human, HepG2 cells (hepatoma cell line), 24 h incubation
Description: as §3

Compound | EC50 at 24 h [µM]
COC(=O)c1cc(NC(=N)N)ccc1-c1ccc(-c2ccc(NC(=N)N)cc2C(=O)OC)o1 [Compound 8, 2,5-Bis(4-guanidino-2-(methylcarboxy)phenyl)furan] | 405
N=C(N)Nc1ccc(-c2ccc(-c3ccc(NC(=N)N)cc3)o2)cc1 [Compound 3] | 185

test system: E. coli (CCUG #17620/ ATCC #25922); experiment: Antibacterial activity against isolates (Omnilog, Biolog redox dye); type: cell-based, Escherichia coli; settings: Escherichia coli; ca-MH broth, 24 h, 37 °C
Description: as §2

Compound | EC50 [µM] | EC90 [µM]
COC(=O)c1cc(NC(=N)N)ccc1-c1ccc(-c2ccc(NC(=N)N)cc2C(=O)OC)o1 [Compound 8, 2,5-Bis(4-guanidino-2-(methylcarboxy)phenyl)furan] | 6 | 8.2
N=C(N)Nc1ccc(-c2ccc(-c3ccc(NC(=N)N)cc3)o2)cc1 [Compound 3] | 1.6 | 2.2

same assay, conditions: SI = ((EC50 MCF-7 + EC50 HepG2)/2)/EC50 bacterial strain

Compound | Selectivity index E. coli (CCUG #17620/ ATCC #25922)
COC(=O)c1cc(NC(=N)N)ccc1-c1ccc(-c2ccc(NC(=N)N)cc2C(=O)OC)o1 [Compound 8, 2,5-Bis(4-guanidino-2-(methylcarboxy)phenyl)furan] | 40.5
N=C(N)Nc1ccc(-c2ccc(-c3ccc(NC(=N)N)cc3)o2)cc1 [Compound 3] | 76.6

test system: E. coli (CCUG #67180); experiment: as above; type: cell-based, Escherichia coli; settings: Escherichia coli, CCUG67180, 24 h, ca-MH broth, 24 h, 37 °C
Description: as §2

Compound | EC90 [µM]
COC(=O)c1cc(NC(=N)N)ccc1-c1ccc(-c2ccc(NC(=N)N)cc2C(=O)OC)o1 [Compound 8, 2,5-Bis(4-guanidino-2-(methylcarboxy)phenyl)furan] | 67.5

same assay, conditions: Escherichia coli, CCUG67180; ca-MH broth, 24 h, 37 °C

Compound | EC50 [µM]
COC(=O)c1cc(NC(=N)N)ccc1-c1ccc(-c2ccc(NC(=N)N)cc2C(=O)OC)o1 [Compound 8, 2,5-Bis(4-guanidino-2-(methylcarboxy)phenyl)furan] | 53.4
N=C(N)Nc1ccc(-c2ccc(-c3ccc(NC(=N)N)cc3)o2)cc1 [Compound 3] | 5.3

same assay, conditions: SI = ((EC50 MCF-7 + EC50 HepG2)/2)/EC50 bacterial strain

Compound | Selectivity index E. coli (CCUG #67180)
COC(=O)c1cc(NC(=N)N)ccc1-c1ccc(-c2ccc(NC(=N)N)cc2C(=O)OC)o1 [Compound 8, 2,5-Bis(4-guanidino-2-(methylcarboxy)phenyl)furan] | 4.6
N=C(N)Nc1ccc(-c2ccc(-c3ccc(NC(=N)N)cc3)o2)cc1 [Compound 3] | 23.7
